The values below come from PubChem BioAssay (NCI).

Some test systems named below: CCRF-CEM leukemia; HOP-92 NSCLC; K-562 leukemia; MALME-3M melanoma; MCF7 breast; MDA-MB-435; MOLT-4 leukemia; NCI-H226 lung; NCI-H460 lung; NCI/ADR-RES ovarian; OVCAR-3 ovarian; OVCAR-4 ovarian; RXF 393 renal; SN12C renal; SNB-75 CNS; T-47D breast; TK-10 renal; UACC-62 melanoma; RPMI-8226 leukemia; SK-MEL-2 melanoma.
Common to all, as to test: growth of human tumour cells (NCI), 48 h

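Method: 48-hour compound exposure of cells in 96-well plates, five concentrations, linear interpolation of endpoints. TGI marks complete inhibition of growth.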

Regarding `CC(=O)SCCC(NC(=S)Nc1ccccc1)P(=O)(Oc1ccccc1)Oc1ccccc1` (stereo unspecified), the TGI in the assay on CCRF-CEM leukemia, with HOP-92 NSCLC, with K-562 leukemia, with MALME-3M melanoma, in the assay on MCF7 breast and with MDA-MB-435 was over 100 µM each time. The TGI in the assay on MOLT-4 leukemia, in the assay with NCI-H226 lung, in the assay with NCI-H460 lung, in the assay with NCI/ADR-RES ovarian, with OVCAR-3 ovarian and in the assay on OVCAR-4 ovarian was over 100 µM each time. Besides, the TGI in the assay with RXF 393 renal, with SN12C renal, in the assay with SNB-75 CNS, in the assay on T-47D breast, in the assay with TK-10 renal and in the assay with UACC-62 melanoma was over 100 µM in each case.

For `CCOC(=O)c1sc(=S)n(-c2ccc(Cl)cc2)c1-n1cc(-c2ccccc2)c(C#N)c1N`, the TGI in the assay on CCRF-CEM leukemia is over 100 µM; with HOP-92 NSCLC, 31.2 µM; in the assay with K-562 leukemia, over 100 µM; with MCF7 breast it was over 100 µM; in the assay with MDA-MB-435, over 100 µM; in the assay with MOLT-4 leukemia, over 100 µM. Moreover, the TGI was 43.5 µM in the assay with NCI-H226 lung; over 100 µM with NCI-H460 lung; 47.1 µM in the assay on NCI/ADR-RES ovarian; 32.6 µM in the assay on OVCAR-3 ovarian; 22.7 µM with OVCAR-4 ovarian; over 100 µM in the assay on RPMI-8226 leukemia. Also, the TGI came to 64.3 µM with RXF 393 renal; 64 µM in the assay on SK-MEL-2 melanoma; 69.7 µM with SN12C renal; 53.6 µM in the assay with SNB-75 CNS; 27.8 µM in the assay on T-47D breast; 24.4 µM in the assay on TK-10 renal. In the assay on UACC-62 melanoma, this molecule displayed a TGI of 85.9 µM.

Turning to `O=C1/C(=C/C=C/c2ccccc2)CCC1CNc1ccccc1` (stereo unspecified), the TGI with CCRF-CEM leukemia is 27.5 µM; in the assay on HOP-92 NSCLC it was over 95.1 µM; in the assay on K-562 leukemia, over 35.6 µM; in the assay with MALME-3M melanoma, over 100 µM; in the assay with MCF7 breast, 32.7 µM; with MDA-MB-435 it was over 86 µM. Besides, the TGI in the assay with MOLT-4 leukemia is over 100 µM; in the assay on NCI-H226 lung, over 100 µM; in the assay with NCI-H460 lung it was over 100 µM; with NCI/ADR-RES ovarian, over 100 µM; in the assay on OVCAR-3 ovarian it was over 68.9 µM; with OVCAR-4 ovarian, over 100 µM. For the same molecule, the TGI is 38.1 µM in the assay on RXF 393 renal; 63.9 µM in the assay on SN12C renal; over 100 µM in the assay with SNB-75 CNS; over 68.4 µM in the assay on T-47D breast; over 74.7 µM in the assay with TK-10 renal; over 100 µM with UACC-62 melanoma.

On to `COc1ccc2c(c1)CN1C(=N2)CSC1c1cccc(Br)c1` (stereo unspecified), for which the TGI with HOP-92 NSCLC is over 100 µM; with K-562 leukemia, over 100 µM; in the assay with MALME-3M melanoma, over 100 µM; with MCF7 breast, over 100 µM; in the assay with MDA-MB-435 it was over 100 µM; in the assay on MOLT-4 leukemia, 63.2 µM. Besides, the TGI in the assay with NCI-H226 lung is 61.2 µM; in the assay on NCI-H460 lung, over 100 µM; in the assay on NCI/ADR-RES ovarian it was over 100 µM; in the assay on OVCAR-4 ovarian it was over 100 µM; in the assay on RPMI-8226 leukemia it was 35.2 µM; in the assay on RXF 393 renal it was 55.9 µM. Besides, the TGI with SK-MEL-2 melanoma is over 100 µM; with SN12C renal it was 62.6 µM; in the assay with SNB-75 CNS, 64.5 µM; with T-47D breast, over 100 µM; in the assay on TK-10 renal it was over 100 µM; with UACC-62 melanoma, 53.1 µM.

With `Cc1cc(C)c2c(=O)cc(-c3cccc4ccccc34)[nH]c2n1`, the TGI in the assay with CCRF-CEM leukemia is over 100 µM; in the assay on HOP-92 NSCLC, over 77.1 µM; with K-562 leukemia it was over 100 µM; in the assay on MALME-3M melanoma, 3.29 µM; in the assay on MCF7 breast, over 100 µM; with MDA-MB-435 it was 0.513 µM. For the same molecule, the TGI in the assay with MOLT-4 leukemia was 42.7 µM; with NCI-H226 lung, 79.1 µM; in the assay with NCI-H460 lung, over 100 µM; in the assay with NCI/ADR-RES ovarian, over 25.9 µM; with OVCAR-4 ovarian, over 100 µM; in the assay on RPMI-8226 leukemia it was 29 µM. The TGI is over 37.1 µM with RXF 393 renal; over 100 µM in the assay with SN12C renal; over 100 µM in the assay with T-47D breast; over 87.1 µM in the assay on TK-10 renal; over 61.6 µM with UACC-62 melanoma.

Take `O=C(O)CO[C@@]12C#C/C=C\C#C[C@@H]3N(C(=O)Oc4ccccc4)c4ccccc4[C@]14O[C@@]34CCC2`: the TGI with CCRF-CEM leukemia is over 100 µM; in the assay with HOP-92 NSCLC, over 100 µM; with K-562 leukemia it was 92.9 µM; in the assay with MCF7 breast it was 46.7 µM; with MDA-MB-435 it was 6.29 µM; in the assay on MOLT-4 leukemia it was over 100 µM. In addition, the TGI in the assay with NCI-H226 lung, with NCI-H460 lung, with NCI/ADR-RES ovarian, in the assay on OVCAR-3 ovarian, in the assay with OVCAR-4 ovarian and in the assay on RPMI-8226 leukemia was over 100 µM throughout. Moreover, the TGI was 32.2 µM in the assay with SK-MEL-2 melanoma; over 100 µM in the assay on SN12C renal; 33.1 µM with T-47D breast; over 100 µM in the assay on TK-10 renal; 26.5 µM in the assay with UACC-62 melanoma.

`Cc1c(-c2ccccc2)cc(O)c2nc3ccccc3n12`: the TGI in the assay with CCRF-CEM leukemia, in the assay on HOP-92 NSCLC, in the assay with K-562 leukemia, with MALME-3M melanoma, in the assay with MCF7 breast and in the assay on MDA-MB-435 was over 100 µM each time. Further, the TGI in the assay on MOLT-4 leukemia, in the assay on NCI-H226 lung, in the assay on NCI-H460 lung, with NCI/ADR-RES ovarian, with OVCAR-3 ovarian and in the assay on OVCAR-4 ovarian was over 100 µM in each case. The TGI in the assay on RPMI-8226 leukemia, in the assay on RXF 393 renal, in the assay on SN12C renal, with SNB-75 CNS, with T-47D breast and in the assay on TK-10 renal was over 100 µM each time. The same molecule came in with a TGI in the assay on UACC-62 melanoma of over 100 µM.
